In ChEMBL document CHEMBL5042486, “Discovery and Preclinical Characterization of BIIB091, a Reversible, Selective BTK Inhibitor for the Treatment of Multiple Sclerosis” (J Med Chem, 2022):
Converted amounts (≈) assume the structure as drawn. Values belong to the molecule of their own block, whether it stands above or below them.

Columns and labels:
[1] = target: T1, Tyrosine-protein kinase BTK (Homo sapiens, UniProt Q06187); test: Inhibition of human BTK using fluorescein-labeled polyGAT peptide as substrate incubated for 30 mins by FRET assay
[2] = target: T1, Tyrosine-protein kinase BTK; test: Inhibition of BTK phosphorylation in human whole blood assessed as reduction in BTK phosphorylation incubated for 30 mins; format: tissue-based
[3] = Kinetic aqueous solubility of the compound in pH 6.8; format: physicochemical; settings: read-out: Kinetic_solubility
[4] = Protein binding in human plasma assessed as unbound fraction at 2 uM by rapid equilibrium dialysis method; format: ADME, cell-free
[5] = Kinetic solubility of the compound at pH 1.5 by shake flask method; format: physicochemical; settings: buffer, read-out: Kinetic_solubility
[6] = Lipophilicity, logD of the compound at pH 7.6 by shake flask assay; format: physicochemical; settings: buffer
[7] = Protein binding in rat plasma assessed as unbound fraction at 2 uM by rapid equilibrium dialysis method; format: ADME, cell-free
Cytochrome P450 3A4 = Cytochrome P450 3A4 (Homo sapiens, UniProt P08684); test: Inhibition of CYP3A4 (unknown origin); format: ADME
Cytochrome P450 2C9 = Cytochrome P450 2C9 (Homo sapiens, UniProt P11712); test: Inhibition of CYP2C9 (unknown origin); format: ADME
[8] = Kinetic aqueous solubility of the compound in pH 3; format: physicochemical; settings: read-out: Kinetic_solubility
[9] = Dissociation constant, pKa of the compound; format: physicochemical
[10] = Kinetic solubility of the compound at pH 7.5 by shake flask method; format: physicochemical; settings: buffer, read-out: Kinetic_solubility
[11] = Half life in Beagle dog at 5 mg/kg, po; format: ADME, organism-based, Canis lupus familiaris; settings: in vivo
[12] = Clearance in Sprague-Dawley rat at 1 mg/kg, iv; format: ADME, organism-based; settings: in vivo
[13] = Clearance in Beagle dog at 1 mg/kg, iv; format: ADME, organism-based, Canis lupus familiaris; settings: in vivo
[14] = Clearance in Sprague-Dawley rat assessed as hepatic blood flow at 1 mg/kg, iv; format: ADME, organism-based, Liver; settings: in vivo
[15] = Clearance in Beagle dog assessed as hepatic blood flow at 1 mg/kg, iv; format: ADME, organism-based, Canis lupus familiaris, Liver; settings: in vivo
[16] = Volume of distribution at steady state in Sprague-Dawley rat at 1 mg/kg, iv; format: ADME, organism-based; settings: in vivo, read-out: Vdss
[17] = Volume of distribution at steady state in Beagle dog at 1 mg/kg, iv; format: ADME, organism-based, Canis lupus familiaris; settings: in vivo, read-out: Vdss
[18] = Half life in Sprague-Dawley rat at 5 mg/kg, po; format: ADME, organism-based; settings: in vivo
[19] = AUC in Sprague-Dawley rat at 5 mg/kg, po; format: ADME, organism-based; design: dose 5 mg/kg; settings: in vivo
[20] = AUC in Beagle dog at 5 mg/kg, po; format: ADME, organism-based, Canis lupus familiaris; design: dose 5 mg/kg; settings: in vivo
[21] = Cmax in Sprague-Dawley rat at 5 mg/kg, po; format: ADME, organism-based; design: route oral, dose 5 mg/kg; settings: in vivo
[22] = Cmax in Beagle dog at 5 mg/kg, po; format: ADME, organism-based, Canis lupus familiaris; design: route oral, dose 5 mg/kg; settings: in vivo
[23] = Oral bioavailability in Sprague-Dawley rat at 5 mg/kg; format: ADME, organism-based; settings: in vivo
[24] = Oral bioavailability in Beagle dog at 5 mg/kg; format: ADME, organism-based, Canis lupus familiaris; settings: in vivo
[25] = Solubility of the compound in simulated gastric fluid at pH 1.6; format: physicochemical
[26] = Solubility of the compound in FaSIF at pH 6.5; format: physicochemical
[27] = Solubility of the compound in FeSIF at pH 5.9; format: physicochemical

Cytochrome P450 2C9, sequence (P11712 whole entry): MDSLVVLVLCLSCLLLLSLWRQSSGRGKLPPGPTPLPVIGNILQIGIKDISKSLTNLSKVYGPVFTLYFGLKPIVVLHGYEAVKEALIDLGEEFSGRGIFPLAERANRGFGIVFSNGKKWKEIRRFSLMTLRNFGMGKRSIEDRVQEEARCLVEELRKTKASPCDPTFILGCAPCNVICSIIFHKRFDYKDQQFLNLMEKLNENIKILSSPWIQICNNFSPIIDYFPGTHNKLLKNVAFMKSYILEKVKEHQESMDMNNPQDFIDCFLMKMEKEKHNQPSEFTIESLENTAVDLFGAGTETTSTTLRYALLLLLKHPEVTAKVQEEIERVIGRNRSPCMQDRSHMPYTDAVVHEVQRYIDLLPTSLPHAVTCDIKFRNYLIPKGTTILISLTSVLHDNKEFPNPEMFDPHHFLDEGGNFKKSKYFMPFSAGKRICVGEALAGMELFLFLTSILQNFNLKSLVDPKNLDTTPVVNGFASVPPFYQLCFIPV
T1 sequence (Q06187 whole entry): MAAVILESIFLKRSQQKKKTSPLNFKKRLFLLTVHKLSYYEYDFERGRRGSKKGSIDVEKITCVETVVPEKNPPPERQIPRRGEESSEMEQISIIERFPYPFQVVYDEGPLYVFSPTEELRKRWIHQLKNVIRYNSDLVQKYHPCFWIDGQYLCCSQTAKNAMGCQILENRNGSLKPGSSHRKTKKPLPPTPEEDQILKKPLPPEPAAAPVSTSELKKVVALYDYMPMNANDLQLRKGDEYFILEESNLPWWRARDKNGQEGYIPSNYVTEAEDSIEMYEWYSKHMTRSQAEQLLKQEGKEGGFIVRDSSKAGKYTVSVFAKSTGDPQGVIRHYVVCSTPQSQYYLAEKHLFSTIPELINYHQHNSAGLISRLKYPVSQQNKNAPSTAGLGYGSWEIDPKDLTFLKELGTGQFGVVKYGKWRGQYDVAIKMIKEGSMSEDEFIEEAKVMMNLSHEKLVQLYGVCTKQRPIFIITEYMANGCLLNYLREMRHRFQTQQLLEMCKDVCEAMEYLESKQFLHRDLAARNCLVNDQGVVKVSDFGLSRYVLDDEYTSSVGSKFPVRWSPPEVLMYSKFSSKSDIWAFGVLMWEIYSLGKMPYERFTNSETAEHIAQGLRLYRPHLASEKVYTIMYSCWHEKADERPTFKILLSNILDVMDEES
Cytochrome P450 3A4, sequence (P08684 whole entry): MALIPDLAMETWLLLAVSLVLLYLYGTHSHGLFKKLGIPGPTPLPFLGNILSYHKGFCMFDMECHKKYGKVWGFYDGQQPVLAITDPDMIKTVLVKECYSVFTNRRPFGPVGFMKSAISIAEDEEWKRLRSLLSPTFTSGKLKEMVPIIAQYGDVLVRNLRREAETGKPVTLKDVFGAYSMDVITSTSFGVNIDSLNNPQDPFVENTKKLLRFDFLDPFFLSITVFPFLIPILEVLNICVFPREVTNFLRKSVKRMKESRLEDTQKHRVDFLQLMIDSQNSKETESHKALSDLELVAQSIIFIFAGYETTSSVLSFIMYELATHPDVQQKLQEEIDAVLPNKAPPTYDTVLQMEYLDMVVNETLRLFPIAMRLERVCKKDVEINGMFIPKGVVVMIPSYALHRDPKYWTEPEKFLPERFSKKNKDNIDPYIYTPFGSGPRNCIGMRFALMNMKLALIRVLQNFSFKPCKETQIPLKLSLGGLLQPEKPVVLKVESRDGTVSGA

SMILES: Cc1c(-c2c(F)cc(C(N)=O)c3[nH]c4c(c23)CC[C@H](C(C)(C)O)C4)cccc1-n1c(=O)c2cccc(F)c2n(C)c1=O [BMS-986142]
- IC50 [1]: 1 nM
- IC50 [2]: 110 nM

SMILES: Cn1cc(Nc2nccc(-c3ccc4c(c3)CCCC[C@H]4NC(=O)c3cn(C(C)(C)C)nn3)n2)cn1
- solubility kinetic [3]: < 20 µg/mL
- fraction unbound at 2 µM [4]: 0.011
- solubility kinetic [5]: > 50 µg/mL
- logD [6]: 3.5
- fraction unbound at 2 µM [7]: 0.002
- IC50 (Cytochrome P450 3A4): 6400 nM
- IC50 (Cytochrome P450 2C9): 2000 nM

SMILES: Cc1c(NC(=O)c2cc3c(s2)CCCC3)cccc1-c1cn(C)c(=O)c(Nc2ccc(C3CN(C)CC(=O)N3C)cc2)n1 (stereo unspecified)
- IC50 [1]: 1 nM
- IC50 [2]: 150 nM

SMILES: CN1CC[C@@H](NC(=O)c2cn(C(C)(C)C)nn2)c2ccc(-c3ccnc(Nc4cnn(C)c4)n3)cc2C1
- IC50 [1]: 0.8 nM
- solubility kinetic [3]: > 50 µg/mL
- fraction unbound at 2 µM [4]: 0.19
- solubility kinetic [5]: > 50 µg/mL
- logD [6]: 1
- pKa [9]: 4

SMILES: Cn1cc(Nc2nccc(-c3ccc4c(c3)CNCC[C@H]4NC(=O)c3cn(C(C)(C)C)nn3)n2)cn1
- solubility kinetic [3]: > 50 µg/mL
- fraction unbound at 2 µM [4]: 0.18
- solubility kinetic [5]: > 50 µg/mL
- logD [6]: 2.9

SMILES: Cn1cc(Nc2nccc(-c3ccc4c(c3)CCCC[C@H]4NC(=O)c3nc(C(C)(C)C)no3)n2)cn1
- solubility kinetic [3]: < 20 µg/mL
- fraction unbound at 2 µM [4]: 0.008
- solubility kinetic [5]: > 50 µg/mL
- logD [6]: 2.8
- fraction unbound at 2 µM [7]: 0.009
- IC50 (Cytochrome P450 3A4): 2600 nM
- IC50 (Cytochrome P450 2C9): 400 nM

SMILES: C=CC(=O)Nc1cccc(Oc2nc(Nc3ccc(N4CCN(C)CC4)cc3)nc3ccoc23)c1 [POSELTINIB]
- IC50 [1]: 1 nM

SMILES: COCCN1CC[C@@H](NC(=O)c2cn(C(C)(C)C)nn2)c2ccc(-c3ccnc(Nc4cnn(C)c4)n3)cc2C1
- solubility kinetic [3]: > 50 µg/mL
- fraction unbound at 2 µM [4]: 0.1
- solubility kinetic [5]: > 50 µg/mL
- logD [6]: 2.9
- pKa [9]: 3.1

SMILES: CC(C)OC1CN(C(=O)N[C@@H]2CCCCc3cc(-c4ccnc(Nc5cnn(C)c5)n4)ccc32)C1
- fraction unbound at 2 µM [4]: 0.07
- solubility kinetic [5]: > 30 µg/mL
- solubility kinetic [10]: > 30 µg/mL
- logD [6]: 3.6
- half-life [11]: 2.4 h
- clearance [12]: 6 mL/min/kg
- clearance [13]: 4 mL/min/kg
- QH [14]: 11%
- QH [15]: 31%
- Vd [16]: 0.6 L/kg
- Vd [17]: 1.6 L/kg
- half-life [18]: 1.3 h
- AUC [19]: 6940 ng·h/mL
- AUC [20]: 14200 ng·h/mL
- Cmax [21]: 2460 ng/mL
- Cmax [22]: 3710 ng/mL
- bioavailability [23]: 69%
- bioavailability [24]: 92%
- solubility [25]: > 15000 µg/mL
- solubility [26]: 80 µg/mL (≈ 168 µM)
- solubility [27]: 170 µg/mL (≈ 357 µM)

SMILES: Cn1cc(Nc2nccc(-c3ccc4c(c3)CCCC[C@H]4NC(=O)c3nnc(C(C)(C)C)o3)n2)cn1
- solubility kinetic [3]: < 20 µg/mL
- fraction unbound at 2 µM [4]: 0.041
- solubility kinetic [5]: > 50 µg/mL
- logD [6]: 2.3
- fraction unbound at 2 µM [7]: 0.008
- IC50 (Cytochrome P450 3A4): > 10000 nM
- IC50 (Cytochrome P450 2C9): 4000 nM

SMILES: Cn1cc(Nc2nccc(-c3ccc4c(c3)CCNC[C@H]4NC(=O)c3cn(C(C)(C)C)nn3)n2)cn1
- solubility kinetic [3]: > 50 µg/mL
- fraction unbound at 2 µM [4]: 0.12
- solubility kinetic [5]: > 50 µg/mL
- logD [6]: 2.3

SMILES: CN1CCc2cc(-c3ccnc(Nc4cnn(C)c4)n3)ccc2[C@H](NC(=O)c2cn(C(C)(C)C)nn2)C1
- fraction unbound at 2 µM [4]: 0.07
- solubility kinetic [5]: > 50 µg/mL
- logD [6]: 2.9

Next, values leading:

- solubility kinetic [3]: < 10 µg/mL
- solubility kinetic [8]: < 10 µg/mL
SMILES: CC(C)OC1CN(C(=O)NCc2ccc(-c3ccnc(Nc4cnn(C)c4)n3)cc2C(F)(F)F)C1

- IC50 [1]: > 10000 nM
SMILES: Cc1cc(-c2ccnc(Nc3cnn(C)c3)n2)c(F)cc1CNC(=O)N1CC(OC(C)C)C1

- solubility kinetic [3]: < 30 µg/mL
- solubility kinetic [8]: < 30 µg/mL
SMILES: CC(C)OC1CN(C(=O)NCc2ccc(-c3ccnc(Nc4cnn(C)c4)n3)cc2Cl)C1

- solubility kinetic [3]: > 30 µg/mL
- solubility kinetic [8]: > 30 µg/mL
SMILES: CC(C)OC1CN(C(=O)NC2CCCc3cc(-c4ccnc(Nc5cnn(C)c5)n4)ccc32)C1 (stereo unspecified)

- solubility kinetic [3]: < 30 µg/mL
- solubility kinetic [8]: > 30 µg/mL
- fraction unbound at 2 µM [4]: 0.06
- solubility kinetic [5]: < 30 µg/mL
- solubility kinetic [10]: > 30 µg/mL
- logD [6]: 2.7
- half-life [11]: 2.1 h
- half-life [18]: 1.2 h
SMILES: Cc1cc(-c2ccnc(Nc3cnn(C)c3)n2)ccc1CNC(=O)N1CC(OC(C)C)C1

- solubility kinetic [3]: > 10 µg/mL
- solubility kinetic [8]: > 10 µg/mL
SMILES: Cc1c(CNC(=O)N2CC(OC(C)C)C2)ccc(-c2ccnc(Nc3cnn(C)c3)n2)c1F
